Read-outs that look alike come from different tables or passages of the source.
Experiments:
human TLR7 = target: T1, human TLR7 (Homo sapiens, UniProt Q9NYK1); test: HEK-Blue hTLR7 SEAP reporter gene inhibition assay; type: cell-based
T1 sequence (Q9NYK1 27-1049): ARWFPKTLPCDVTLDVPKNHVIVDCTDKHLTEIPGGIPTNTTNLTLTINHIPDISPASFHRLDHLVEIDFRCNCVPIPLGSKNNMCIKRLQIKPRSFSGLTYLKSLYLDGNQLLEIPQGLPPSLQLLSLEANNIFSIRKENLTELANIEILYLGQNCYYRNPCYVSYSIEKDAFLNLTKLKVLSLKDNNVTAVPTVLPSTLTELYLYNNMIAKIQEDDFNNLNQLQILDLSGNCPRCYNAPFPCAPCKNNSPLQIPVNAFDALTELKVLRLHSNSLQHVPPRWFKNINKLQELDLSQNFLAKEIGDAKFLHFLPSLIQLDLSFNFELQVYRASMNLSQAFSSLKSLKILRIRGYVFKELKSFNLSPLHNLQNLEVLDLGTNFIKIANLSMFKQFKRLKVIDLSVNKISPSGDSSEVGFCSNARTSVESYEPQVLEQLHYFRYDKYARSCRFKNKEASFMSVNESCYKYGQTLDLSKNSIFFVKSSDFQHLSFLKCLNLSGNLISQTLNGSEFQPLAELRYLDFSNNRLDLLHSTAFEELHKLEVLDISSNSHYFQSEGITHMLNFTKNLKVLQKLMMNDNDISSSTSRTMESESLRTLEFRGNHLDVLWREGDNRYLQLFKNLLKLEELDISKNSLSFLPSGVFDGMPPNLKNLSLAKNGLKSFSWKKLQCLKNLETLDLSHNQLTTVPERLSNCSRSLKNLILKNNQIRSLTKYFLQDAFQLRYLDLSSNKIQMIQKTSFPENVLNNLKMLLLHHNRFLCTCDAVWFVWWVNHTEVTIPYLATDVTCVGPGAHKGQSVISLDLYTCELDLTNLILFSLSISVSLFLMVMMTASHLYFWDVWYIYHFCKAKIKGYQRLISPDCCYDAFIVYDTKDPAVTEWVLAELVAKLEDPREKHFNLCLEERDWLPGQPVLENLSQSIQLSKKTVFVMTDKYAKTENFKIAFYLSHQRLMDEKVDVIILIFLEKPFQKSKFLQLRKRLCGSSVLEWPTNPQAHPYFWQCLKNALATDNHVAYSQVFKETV
Method in brief: (§1)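 Compounds (final 0.001–36 µM) were added 15 min before stimulation with 10 µM TLR7 agonist Gardiquimod or 10 µM TLR8 ligand for 20 h. Read-out: SEAP from NF-κB/AP-1 reporter in hTLR7 (80,000 cells/well) or hTLR8 (60,000 cells/well) HEK-Blue cells, via Quanti-Blue; IC50 derived.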

human TLR8 = target: T2, human TLR8 (Homo sapiens, UniProt Q9NR97); test: HEK-Blue hTLR8 SEAP reporter gene inhibition assay; type: cell-based
T2 construct: expressed in transfected cells
T2 sequence (Q9NR97 27-1041): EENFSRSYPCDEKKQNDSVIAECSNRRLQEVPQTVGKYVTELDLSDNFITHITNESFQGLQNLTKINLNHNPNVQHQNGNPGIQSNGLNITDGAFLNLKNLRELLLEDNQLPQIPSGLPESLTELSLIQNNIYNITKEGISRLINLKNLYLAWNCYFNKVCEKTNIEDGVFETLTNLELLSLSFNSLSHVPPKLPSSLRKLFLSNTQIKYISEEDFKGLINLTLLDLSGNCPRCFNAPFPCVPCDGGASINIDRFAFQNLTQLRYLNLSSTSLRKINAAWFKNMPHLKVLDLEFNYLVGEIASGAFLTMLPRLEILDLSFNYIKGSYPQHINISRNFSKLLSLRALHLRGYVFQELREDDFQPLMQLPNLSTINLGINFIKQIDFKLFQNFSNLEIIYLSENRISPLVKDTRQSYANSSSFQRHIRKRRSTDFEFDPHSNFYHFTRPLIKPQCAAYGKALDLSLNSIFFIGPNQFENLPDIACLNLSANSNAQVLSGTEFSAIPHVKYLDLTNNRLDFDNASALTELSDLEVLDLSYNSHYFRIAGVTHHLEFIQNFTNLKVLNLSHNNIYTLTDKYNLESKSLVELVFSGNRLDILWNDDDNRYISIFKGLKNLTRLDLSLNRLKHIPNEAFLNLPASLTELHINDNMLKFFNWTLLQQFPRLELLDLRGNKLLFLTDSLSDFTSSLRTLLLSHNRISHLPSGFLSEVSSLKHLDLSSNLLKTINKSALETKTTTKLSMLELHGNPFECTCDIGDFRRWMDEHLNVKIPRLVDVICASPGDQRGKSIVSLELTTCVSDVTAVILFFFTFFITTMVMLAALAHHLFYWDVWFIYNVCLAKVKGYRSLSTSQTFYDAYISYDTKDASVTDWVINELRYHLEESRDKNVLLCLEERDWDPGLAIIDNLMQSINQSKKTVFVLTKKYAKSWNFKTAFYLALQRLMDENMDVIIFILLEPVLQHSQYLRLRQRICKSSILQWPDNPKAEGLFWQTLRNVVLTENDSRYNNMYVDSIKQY
Method in brief: as §1

[1] = hTLR7 HEK-Blue cells, TLR7 ligand Gardiquimod 10 µM, 20 hours, SEAP by Quanti-blue, class symbols, read-out: HEK-Blue hTLR7 IC50
[2] = hTLR8 HEK-Blue cells, TLR8 ligand 10 µM, 20 hours, SEAP by Quanti-blue, class symbols, read-out: HEK-Blue hTLR8 IC50

| IC50 (human TLR7; [1]) [µM] | IC50 (human TLR8; [2]) [µM] | SMILES | also measured |
| --- | --- | --- | --- |
| > 0.05 | > 0.1 | C[C@@H]1CN(c2ccc(C#N)c3ncccc23)Cc2c3c(nn21)CN(CC(N)=O)[C@@H](C)C3 [Example I-141, 2-((4R,9S)-2-(8-cyanoquinolin-5-yl)-4,9-dimethyl-1,2,3,4,9,10-hexahydropyrido [3',4':3,4]pyrazolo[1,5-a]pyrazin-8(7H)-yl)acetamide] |  |
| < 0.05 | < 0.1 | C[C@@H]1CN(c2ccc(C#N)n3ncc(F)c23)Cc2c3c(nn21)CN(CC(C)(C)O)[C@@H](C)C3 [Example I-117, 3-Fluoro-4-((4R,9S)-8-(2-hydroxy-2-methylpropyl)-4,9-dimethyl-3,4,7,8,9,10-hexahydropyrido[3',4':3,4]pyrazolo[1,5-a]pyrazin-2(1H)-yl)pyrazolo[1,5-a]pyridine-7-carbonitrile] |  |
| > 0.05 | > 0.1 | C[C@@H]1CN(c2ccc(C#N)n3ncc(F)c23)Cc2c3c(nn21)CN(C(CO)CO)[C@@H](C)C3 [Example I-159, 4-((4R,9S)-8-(1,3-dihydroxypropan-2-yl)-4,9-dimethyl-3,4,7,8,9,10-hexahydropyrido [3',4':3,4]pyrazolo[1,5-a]pyrazin-2(1H)-yl)-3-fluoropyrazolo[1,5-a]pyridine-7-carbonitrile] |  |
| < 0.05 | > 0.1 | C[C@@H]1CN(c2ccc(C#N)n3ncc(F)c23)Cc2c3c(nn21)CN(C1CCOC1)[C@@H](C)C3 (stereo partly drawn) [Example I-142, 4-((4R,9S)-4,9-dimethyl-8-(tetrahydrofuran-3-yl)-3,4,7,8,9,10-hexahydropyrido [3',4':3,4]pyrazolo[1,5-a]pyrazin-2(1H)-yl)-3-fluoropyrazolo[1,5-a]pyridine-7-carbonitrile] |  |

More lines, now with the values behind:

| SMILES | IC50 (human TLR7; [1]) [µM] | IC50 (human TLR8; [2]) [µM] | also measured |
| --- | --- | --- | --- |
| C[C@H]1NCCc2c1nn1c2CN(c2ccc(C#N)n3ncc(F)c23)C[C@H]1CF [Example I-87, 3-Fluoro-4-((4S,7R)-4-(fluoromethyl)-7-methyl-3,4,7,8,9,10-hexahydropyrido [3',4':3,4]pyrazolo[1,5-a]pyrazin-2(1H)-yl)pyrazolo[1,5-a]pyridine-7-carbonitrile] | < 0.05 | < 0.1 |  |
| C[C@@H]1CN(c2ccc(C#N)n3ncc(F)c23)Cc2c3c(nn21)C1CCC(C3)N1 (stereo partly drawn) [Example I-52, 3-Fluoro-4-((4R)-4-methyl-1,3,4,7,8,9,10,11-octahydro-2H-7,10-epiminocyclohepta [3,4]pyrazolo[1,5-a]pyrazin-2-yl)pyrazolo[1,5-a]pyridine-7-carbonitrile] | < 0.05 | < 0.1 |  |
| CC1Cc2nn3c(c2CN1)CN(c1ccc(C#N)n2ncc(F)c12)C[C@H]3C (single isomer, unassigned) [Example I-11b] | < 0.05 | < 0.1 |  |
| C[C@@H]1CN(c2ccc(C#N)n3ncc(F)c23)Cc2c3c(nn21)CN(C1CC(O)C1)[C@@H](C)C3 (stereo partly drawn) [Example I-111, 3-Fluoro-4-((4R, 9S)-8-(3-hydroxycyclobutyl)-4,9-dimethyl-3,4,7,8,9, 10-hexahydropyridine [3 ', 4 ': 3, 4]pyrazole [1,5-a]pyrazine-2 (1 H) -yl) pyrazole [1,5-a] pyridine-7-nitrile] |  |  | IC50 (human TLR7; HEK-Blue hTLR7 IC50 (µM)): < 0.05 µM; IC50 (human TLR8; HEK-Blue hTLR8 IC50 (µM)): < 0.1 µM |
| COC[C@@H]1Cc2c(nn3c2CN(c2ccc(C#N)n4ncc(F)c24)C[C@H]3C)CN1 [Example I-85, 3-Fluoro-4-((4R,9S)-9-(methoxymethyl)-4-methyl-3,4,7,8,9,10-hexahydropyrido [3',4':3,4]pyrazolo[1,5-a]pyrazin-2(1H)-yl)pyrazolo[1,5-a]pyridine-7-carbonitrile] | > 0.05 | < 0.1 |  |
| COCCN1Cc2nn3c(c2C[C@@H]1C)CN(c1ccc(C#N)n2ncc(F)c12)C[C@H]3C [Example I-125, 3-Fluoro-4-((4R,9S)-8-(2-methoxyethyl)-4,9-dimethyl-3,4,7,8,9,10-hexahydropyridine [3 ', 4 ': 3, 4]pyrazole [1,5-a]pyrazine-2(1H)-yl) pyrazole[1,5-a] pyridine-7-caronitrile] |  |  | IC50 (human TLR7; read-out: HEK-Blue hTLR7 IC50): < 0.05 µM; IC50 (human TLR8; read-out: HEK-Blue hTLR8 IC50): < 0.1 µM |
